Usually IC50 stands for the midpoint of a concentration-inhibition curve. Read a low IC50 as greater potency.

The source of these data is patent publication US20250042963A1, “METHODS FOR TREATING MYELOPROLIFERATIVE DISORDERS” (Acceleron Pharma Inc., priority 2015, published 2025).

One series concerns myelofibrosis patients. The settings on record: cited from earlier work.
In series [1] the test system is patients with a myeloproliferative disorder. The following applies: symptomatic splenomegaly; cited from earlier work.
The test system of another series is patients with MF. The following applies: 82 evaluable patients with MF, three phase 1 and 2 trials; cited from earlier work.
For series [2], the system named is patients with PV that did not respond to hydroxyurea. The following applies: cited from earlier work.
For the next series, the system named is MF patients. The settings on record: cited from earlier work.
For another series, the system named is JAK2V617F-positive cells. The settings on record: cited from earlier work.
The test system of series [3] is patients with PMF or post-PV/ET MF. The settings on record: cited from earlier work.
For a further series, the target named is T1, human TGFβ1 (Homo sapiens, UniProt P01137).
T1 construct: purchased PeproTech
T1 sequence (P01137 279-390 limits assumed): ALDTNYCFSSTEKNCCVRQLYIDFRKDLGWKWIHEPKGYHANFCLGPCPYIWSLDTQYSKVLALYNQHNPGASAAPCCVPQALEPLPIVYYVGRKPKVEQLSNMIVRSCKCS
Nature of the series: Reporter gene assay in A549 cells (pGL3(CAGA)12), inhibition of TGFβ1 activity. In kind it is cell-based. The source says: (§1) A reporter gene assay in A549 cells was used to determine the ability of hTβRII-hFc variants to inhibit activity of TGFβ1, TGFβ2, and TGFβ3. This assay is based on a human lung carcinoma cell line transfected with a pGL3(CAGA)12 reporter plasmid (Dennler et al., 1998, EMBO 17: 3091-3100) as well as a Renilla reporter plasmid (pRLCMV) to control for transfection efficiency. The CAGA motif is present in the promoters of TGFβ-responsive genes (for example, PAI-1), so this vector is of general use for factors signaling through SMAD2 and SMAD3.
(§2) On the first day of the assay, A549 cells (ATCC®: CCL-185™) were distributed in 48-well plates at 6.5×10^4 cells per well. On the second day, a solution containing 10 μg pGL3(CAGA)12, 100 ng pRLCMV, 30 μl X-tremeGENE 9 (Roche Applied Science), and 970 μl OptiMEM (Invitrogen) was preincubated for 30 min, then added to Eagle's minimum essential medium (EMEM, ATCC®) supplemented with 0.1% BSA, which was applied to the plated cells (500 μl/well) for incubation overnight at […]. On the third day, medium was removed, and cells were incubated overnight at 37° C. with a mixture of ligands and inhibitors prepared as described below.
(§3) Serial dilutions of test articles were made in a 48-well plate in a 200 μl volume of assay buffer (EMEM+0.1% BSA). An equal volume of assay buffer containing the test ligand was added to obtain a final ligand concentration equal to the EC50 determined previously. Human TGFβ 1, human TGFβ2, and human TGFβ3 were obtained from PeproTech. Test solutions were incubated at 37° C. for 30 minutes, then 250 μl of the mixture was added to all wells. Each concentration of test article was determined in duplicate. After incubation with test solutions overnight, cells were rinsed with phosphate-buffered saline, then lysed with passive lysis buffer (Promega E1941) and stored overnight at −70° C. On the fourth and final day, plates were warmed to room temperature with gentle shaking. Cell lysates were transferred in duplicate to a chemiluminescence plate (96-well) and analyzed in a luminometer with reagents from a Dual-Luciferase Reporter Assay system (Promega E1980) to determine normalized luciferase activity.

The next series addresses T2, human TGFβ3 (Homo sapiens, UniProt P10600).
T2 construct: purchased PeproTech
T2 sequence (P10600 301-412 limits assumed): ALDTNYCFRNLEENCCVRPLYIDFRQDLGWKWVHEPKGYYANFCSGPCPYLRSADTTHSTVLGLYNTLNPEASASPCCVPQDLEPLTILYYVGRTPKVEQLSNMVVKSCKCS
The series is described as follows: Reporter gene assay in A549 cells (pGL3(CAGA)12), inhibition of TGFβ3 activity. Format: cell-based.
Description: A reporter gene assay in A549 cells was used to determine the ability of hTβRII-hFc variants to inhibit activity of TGFβ1, TGFβ2, and TGFβ3. This assay is based on a human lung carcinoma cell line transfected with a pGL3(CAGA)12 reporter plasmid (Dennler et al., 1998, EMBO 17: 3091-3100) as well as a Renilla reporter plasmid (pRLCMV) to control for transfection efficiency.
as §2
as §3, with “An equal volume of assay buffer containing the test ligand was added to obtain a final ligand concentration equal to the EC50 determined previously.” left out
On the technique in general: A reporter such as luciferase makes a cellular process visible.

The next series addresses T3, human TGFβ2 (Homo sapiens, UniProt P61812).
T3 construct: purchased PeproTech
T3 sequence (P61812 303-414 limits assumed): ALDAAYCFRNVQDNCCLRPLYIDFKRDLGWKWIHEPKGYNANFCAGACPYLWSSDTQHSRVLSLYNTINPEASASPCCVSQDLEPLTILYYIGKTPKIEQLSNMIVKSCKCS
The series is described as follows: Reporter gene assay in A549 cells (pGL3(CAGA)12), inhibition of TGFβ2 activity. Format: cell-based. The settings on record: Summary of Ligand Selectivity; cell names the ligand in this class.
Description: as §1, §2, §3

The mark [4] stands for this setting: Summary of Ligand Selectivity, cell names the ligand in this class.

Consider `Nc1cccc2c1CN(C1CCC(=O)NC1=O)C2=O` (centres unmarked) [lenalidomide], for which the effect on anemia result with myelofibrosis patients (myelofibrosis patients with del(5q31)-associated anemia) is given as “significant improvement, with resolution of anemia”. The “spleen responses / response rate” value in series [1] is on record as 33%.

On to `O=C1CCC(N2C(=O)c3ccccc3C2=O)C(=O)N1` (centres unmarked) [thalidomide], for which the tolerability entry in the series on myelofibrosis patients (myelofibrosis patients, peripheral neuropathies, constipation, somnolence) was “poorly tolerated”. The “spleen responses / response rate” value in series [1] is reported as under 20%.

As for `C#C[C@]1(O)CC[C@H]2[C@@H]3CCC4=Cc5oncc5C[C@]4(C)[C@H]3CC[C@@]21C` [danazol], the “response rate / responses in anemia (% of patients)” value in the series with myelofibrosis patients (anemic myelofibrosis patients) is given as “around 20%”.

Consider `Nc1cccc2c1C(=O)N(C1CCC(=O)NC1=O)C2=O` (centres unmarked) [pomalidomide], for which, in the series with patients with MF, the “anemia response according to IWG-MRT criteria” value was 27%.

In the case of `CCN(CC)Cc1ccc2cc(COC(=O)Nc3ccc(C(=O)NO)cc3)ccc2c1` [Givinostat, givinostat], the “complete or partial response” value in series [2] (randomized phase 2 trial, PV) is given as “approximately 50%”. Besides, the tolerability entry in series [2] (the combination) is “generally well tolerated”.

As to `CCCCc1nc2cc(/C=C/C(=O)NO)ccc2n1CCN(CC)CC` [pracinostat], the “IWG criteria anemia responses” value in the series with MF patients (MF patients) is “approximately 10%”. The “reduction in spleen size (% of patients)” value with MF patients (human, in vivo) was 27%.

Regarding `CO[C@H]1C[C@@H]2CC[C@@H](C)[C@@](O)(O2)C(=O)C(=O)N2CCCC[C@H]2C(=O)O[C@H]([C@H](C)C[C@@H]2CC[C@@H](OCCO)[C@H](OC)C2)CC(=O)[C@H](C)/C=C(\C)[C@@H](O)[C@@H](OC)C(=O)[C@H](C)C[C@H](C)/C=C/C=C/C=C/1C` [everolimus], the “proliferation of JAK2V617F-positive cells” value with JAK2V617F-positive cells was “decreased”. Further, in series [3] (30 evaluable patients), the “complete resolution of pruritus” value is given as 80% and the “complete resolution of systemic symptoms” value is reported as 69%. Besides, in series [3] (in vivo), the “response rate, European Myelofibrosis Network criteria” value is listed as 60%; the “response rate, International Working Group for Myelofibrosis Research and Treatment criteria” value was 23%.

B1: TβRIIshort(23-159)-G2Fc: wild-type human TβRII short isoform ECD (23-159) fused to human IgG2 Fc; SEQ ID NO: 50, with TPA leader SEQ ID NO: 52 (protein)
chain: TIPPHVQKSVNNDMIVTDNNGAVKFPQLCKFCDVRFSTCDNQKSCMSNCSITSICEKPQEVCVAVWRKNDENITLETVCHDPKLPYHDFILEDAASPKCIMKEKKKPGETFFMCSCSSDECNDNIIFSEEYNTSNPDTGGGVECPPCPAPPVAGPSVFLFPPKPKDTLMISRTPEVTCVVVDVSHEDPEVQFNWYVDGVEVHNAKTKPREEQFNSTFRVVSVLTVVHQDWLNGKEYKCKVSNKGLPAPIEKTISKTKGQPREPQVYTLPPSREEMTKNQVSLTCLVKGFYPSDIAVEWESNGQPENNYKTTPPMLDSDGSFFLYSKLTVDKSRWQQGNVFSCSVMHEALHNHYTQKSLSLSPGK
Turning to B1, the IC50 with human TGFβ1 (A549 reporter gene assay, hTGFβ1 640 pg/ml, first experiment (D110K)) is 1.73 nM; with human TGFβ3 (A549 reporter gene assay, hTGFβ3 270 pg/ml, first experiment (D110K)) it was 0.14 nM. Further, in the series with human TGFβ1 (setting [4]), the “Degree of Ligand Inhibition: Potent (ligand TGFβ1)” value is reported as “TGFβ1”. In addition, in the series with human TGFβ3 (setting [4]), the “Degree of Ligand Inhibition: Potent (ligand TGFβ3)” value is “TGFβ3”. In addition, the “Degree of Ligand Inhibition: Negligible (ligand TGFβ2)” value with human TGFβ2 was “TGFβ2”.
